In article PMC6155626 (Molecules : A Journal of Synthetic Chemistry and Natural …, 2016):
≈ marks a conversion by molar mass, not a printed value. Where “and” joins values, the source holds several entries; their conditions need not be identical. Identical values can stand only once. Like-named read-outs stand apart in the source and are kept apart here.

Key:
[1] = test system: Xanthomonas oryzae pv. oryzae; conditions: X. oryzae, previously reported analog, cited from earlier work
[2] = test system: Ralstonia solanacearum; conditions: R. solanacearum, previously reported analog, cited from earlier work
[3] = test system: X. oryzae in rice plant; type: in vivo, Xanthomonas oryzae pv. oryzae; conditions: 200 μg/mL, 14 days after spraying
[4] = test system: Ralstonia solanacearum; test: microbe, parasite or virus in culture; type: cell-based; conditions: for EC50 / Inhibition rate: R. solanacearum; for Inhibition rate: average of three replicates; for inhibition at 100 µg/mL / inhibition at 200 µg/mL: read-out: Inhibition rate
[5] = test system: Xanthomonas oryzae pv. oryzae; test: microbe, parasite or virus in culture; type: cell-based; conditions: for Inhibition rate: average of three replicates; for inhibition at 100 µg/mL: read-out: Inhibition rate, X. oryzae, 100 μg/mL, average of three replicates; for inhibition at 200 µg/mL: read-out: Inhibition rate, X. oryzae, 200 μg/mL, average of three replicates
[6] = test system: Xanthomonas axonopodis pv. citri; test: microbe, parasite or virus in culture; type: cell-based; conditions: for inhibition at 100 µg/mL / inhibition at 200 µg/mL: read-out: Inhibition rate
[7] = test system: rice seeds (Fengyou Xiangzhan)
[8] = test system: tobacco leaves; conditions: for Necrosis (lesion diameter) on tobacco leaves: Nicotiana benthamiana (tobacco)
[9] = test system: X. oryzae in rice plant; conditions: 200 μg/mL; cited from earlier work
[10] = Fengyou Xiangzhan, rice, in vivo
[11] = 50 to 300 μM, four days after inoculation

SMILES: CS(=O)(=O)c1nnc(-c2ccc(F)cc2)o1 [C00001 (R = F, X = No Atom), 2-(4-fluorophenzyl)-5-(methylsulfonyl)-1,3,4-oxadiazole]
- EC50 ([1]; X = No Atom): 9.89 ± 1.52 ^16 μg/mL
- EC50 ([2]; X = No Atom): 8.29 ± 0.56 ^14 μg/mL

SMILES: CS(=O)(=O)c1nnc(-c2ccc(Cl)cc2Cl)o1 [C00001 (R = 2,4-di Cl, X = No Atom)]
- EC50 ([1]; X = No Atom): 52.14 ± 1.05 ^16 μg/mL
- EC50 ([2]; X = No Atom): 16.55 ± 1.12 ^14 μg/mL

SMILES: CS(=O)(=O)c1nnc(-c2ccc(Cl)cc2)o1 [C00001 (R = 4-Cl, X = No Atom)]
- EC50 ([1]; X = No Atom): 23.21 ± 0.98 ^16 μg/mL
- EC50 ([2]; X = No Atom): 120.90 ± 2.6 ^14 μg/mL

SMILES: Nc1nnc([S-])s1.Nc1nnc([S-])s1.[Cu+2] [Thiodiazole-copper, 2-amino-5-mercapto-1,3,4-thiadiazole-copper, reference compound]
- Disease Index [3]: 55.6
- Morbidity [3]: 100.0%
- Protective Efficiency [3]: 32.0 ± 3.0%
- Protective Efficiency ([3]; listed as Thiadiazole-copper): 32.0%
- EC50 [4]: >200 µg/mL
- Inhibition rate ([4]; 100 μg/mL): 35%
- Inhibition rate ([4]; 200 μg/mL): 50%
- EC50 ([5]; X. oryzae): 121.82 ± 3.59 µg/mL
- Inhibition rate ([5]; X. oryzae, 100 μg/mL): 35%
- Inhibition rate ([5]; X. oryzae, 200 μg/mL): 69%
- EC50 [6]: 107.04 ± 1.96 µg/mL
- Inhibition rate [6]: 65% and 47%

SMILES: CS(=O)(=O)c1nnc(COc2ccc(F)cc2)o1 [Compound 5I-1, 2-(4-Fluorophenoxymethyl)-5-(methylsulfonyl)-1,3,4-oxadiazole]
- Disease Index [3]: 15.6
- Morbidity [3]: 100.0%
- Protective Efficiency [3]: 90.4% and 90.4 ± 2.8%
- Phenotypic effect on rice seedlings, root growth and shoot development (in words) [7, 10]: barely effected root growth or inhibited shoot development at concentration 1–100 μM
- Phenotypic effect on rice seedlings, root growth and shoot development (in words) ([7]; concentration (1–300 μM)): no apparently phytotoxicity
- melting point: 108 to 110 °C
- EC50 [4]: 1.97 ± 0.23 µg/mL (≈ 7.24 µM)
- EC50 ([4]; Ralstonia solanacearum): 1.67 µg/mL (≈ 6.13 µM)
- inhibition at 100 µg/mL ([4]; Ralstonia solanacearum): 100%
- inhibition at 200 µg/mL ([4]; Ralstonia solanacearum): 100%
- EC50 ([5]; Xanthomonas oryzae): 0.45 ± 0.06 µg/mL (≈ 1.65 µM)
- inhibition at 100 µg/mL ([5]; Xanthomonas oryzae): 100%
- inhibition at 200 µg/mL ([5]; Xanthomonas oryzae): 100%
- Phytotoxic effect on tobacco plant (in words) [8, 11]: no apparently phytotoxicity
- Necrosis (lesion diameter) on tobacco leaves ([8]; in vivo): 0.2–0.3 cm
- Phytotoxic effect on tobacco plant (in words) ([8]; in vivo): no or negligible phytotoxic effect
- EC50 ([6]; Xanthomonas axonopodis): 80.5 ± 5.38 µg/mL
- inhibition at 100 µg/mL ([6]; Xanthomonas axonopodis): 72%
- inhibition at 200 µg/mL ([6]; Xanthomonas axonopodis): 80%

SMILES: CS(=O)(=O)c1nnc(Cc2ccc(F)cc2)o1 [C00001 (R = F, X = CH2), 2-(4-fluorobenzyl)-5-(methylsulfonyl)-1,3,4-oxadiazole]
- EC50 ([1]; X = CH2): 1.07 ± 0.68 ^15 μg/mL

SMILES: CS(=O)(=O)c1nnc(Cc2ccc(Cl)cc2)o1 [C00001 (R = 4-Cl, X = CH2)]
- EC50 ([1]; X = CH2): 12.23 ± 1.45 ^15 μg/mL

SMILES: CS(=O)(=O)c1nnc(Cc2ccc(Cl)cc2Cl)o1 [C00001 (R = 2,4-di Cl, X = CH2)]
- EC50 ([1]; X = CH2): 1.96 ± 0.99 ^15 μg/mL
- EC50 ([2]; X = CH2): 59.9 ^26 μg/mL

SMILES: S=c1[nH]nc(NCNc2n[nH]c(=S)s2)s1 [Bismerthiazol, 5,5′-(methylenediimino)bis-1,3,4-Thiadiazole-2(3H)-thione, reference compound]
- Control efficiency against rice bacterial leaf blight [9]: 25.49%
- Disease Index [3]: 60.0
- Morbidity [3]: 100.0%
- Protective Efficiency [3]: 25.6% and 25.6 ± 4.4%
- Concentration showing phytotoxicity on rice germination [7, 10]: 300 µM
- EC50 ([4]; Ralstonia solanacearum): 59.7 ± 2.56 µg/mL (≈ 214 µM)
- inhibition at 100 µg/mL ([4]; Ralstonia solanacearum): 99%
- inhibition at 200 µg/mL ([4]; Ralstonia solanacearum): 100%
- EC50 ([5]; Xanthomonas oryzae): 92.6 ± 2.15 µg/mL (≈ 333 µM)
- inhibition at 100 µg/mL ([5]; Xanthomonas oryzae): 54%
- inhibition at 200 µg/mL ([5]; Xanthomonas oryzae): 72%
- Necrosis (lesion diameter) on tobacco leaves ([8]; in vivo): 0.2–0.3 cm
- Phytotoxic effect on tobacco plant (in words) ([8]; in vivo): no or negligible phytotoxic effect
- EC50 [6]: 119.5 ± 5.1 µg/mL
- EC50 ([6]; Xanthomonas axonopodis): 119 µg/mL
- EC50 ([6]; Xanthomonas axonopodis, read-out: Bactericidal EC50 in molar terms): ~333 µM
- inhibition at 100 µg/mL ([6]; Xanthomonas axonopodis): 45%
- inhibition at 200 µg/mL ([6]; Xanthomonas axonopodis): 67%

SMILES: CS(=O)(=O)c1nnc(COc2ccc(Cl)cc2)o1 [Compound 5I-2, 2-((4-Chlorophenoxy)methyl)-5-(methylsulfonyl)-1,3,4-oxadiazole]
- Disease Index [3]: 23.8
- Morbidity [3]: 100.0%
- Protective Efficiency [3]: 77.7% and 77.7 ± 3.4%
- Phenotypic effect on rice seedlings, root growth and shoot development (in words) ([7]; concentration (1–300 μM)): no apparently phytotoxicity
- Phenotypic effect on rice seedlings, root growth and shoot development (in words) ([7]; in vivo): predominantly inhibited root growth while allowing moderate shoot development
- melting point: 113 to 114 °C
- EC50 ([4]; Ralstonia solanacearum): 13.4 ± 1.54 µg/mL (≈ 46.5 µM)
- inhibition at 100 µg/mL ([4]; Ralstonia solanacearum): 100%
- inhibition at 200 µg/mL ([4]; Ralstonia solanacearum): 100%
- EC50 ([5]; Xanthomonas oryzae): 1.44 ± 0.18 µg/mL (≈ 4.99 µM)
- inhibition at 100 µg/mL ([5]; Xanthomonas oryzae): 100%
- inhibition at 200 µg/mL ([5]; Xanthomonas oryzae): 100%
- Phytotoxic effect on tobacco plant (in words) [8, 11]: no apparently phytotoxicity
- Necrosis (lesion diameter) on tobacco leaves ([8]; in vivo): 0.2–0.3 cm
- Phytotoxic effect on tobacco plant (in words) ([8]; in vivo): no or negligible phytotoxic effect
- EC50 ([6]; Xanthomonas axonopodis): 31.4 ± 3.56 µg/mL
- inhibition at 100 µg/mL ([6]; Xanthomonas axonopodis): 76%
- inhibition at 200 µg/mL ([6]; Xanthomonas axonopodis): 88%

SMILES: CS(=O)(=O)c1nnc(COc2ccc(Cl)cc2Cl)o1 [Compound 5I-4, 2-((2,4-Dichlorophenoxy)methyl)-5-(methylsulfonyl)-1,3,4-oxadiazole]
- Morbidity [3]: 100.0%
- Phenotypic effect on rice seedlings, root growth and shoot development (in words) [7, 10]: severely inhibited both root growth and shoot development even at the lowest concentration 1 μM
- Phenotypic effect on rice seedlings, root growth and shoot development (in words) ([7]; concentration (1–300 μM)): highly suppressed both root and shoot development
- EC50 ([4]; Ralstonia solanacearum): 20.5 ± 1.56 µg/mL (≈ 63.5 µM)
- inhibition at 100 µg/mL ([4]; Ralstonia solanacearum): 100%
- inhibition at 200 µg/mL ([4]; Ralstonia solanacearum): 100%
- EC50 ([5]; Xanthomonas oryzae): 0.72 ± 0.15 µg/mL (≈ 2.23 µM)
- inhibition at 100 µg/mL ([5]; Xanthomonas oryzae): 100%
- inhibition at 200 µg/mL ([5]; Xanthomonas oryzae): 100%
- Necrosis (lesion diameter) on tobacco leaves ([8]; in vivo): 0.2–0.3 cm
- Phytotoxic effect on tobacco plant (in words) ([8]; in vivo): no or negligible phytotoxic effect
- EC50 ([6]; Xanthomonas axonopodis): 49 ± 2.34 µg/mL
- inhibition at 100 µg/mL ([6]; Xanthomonas axonopodis): 48%
- inhibition at 200 µg/mL ([6]; Xanthomonas axonopodis): 69%
